Experimental data: PMC7979765, “trans-Translation inhibitors bind to a novel site on the ribosome and clear Neisseria gonorrhoeae in vivo” (Nature Communications, 2021)
≈ marks a conversion by molar mass, not a printed value. Where two headings read alike, the source gives them in different places.

Tested on: Neisseria gonorrhoeae
Experiment: MIC, microbroth dilution, G77L medium
Format: cell-based
Conditions: Neisseria gonorrhoeae

## O=C(Nc1nnc(-c2ccc(F)cc2)o1)c1ccc(Cl)cc1 [KKL-35, 4-chloro-N-(5-(4-fluorophenyl)-1,3,4-oxadiazol-2-yl)benzamide]
ATCC49226, Neisseria gonorrhoeae ATCC 49226, source data, individual replicates, read-out: MIC
  MIC: 0.124 µg/mL (≈ 0.39 µM)
ATCC49226, strain ATCC 49226, geomean of replicates, read-out: MIC GEOMEAN
  MIC: 0.124 µg/mL (≈ 0.39 µM)
ATCC49226, strain ATCC 49226, replicates 1-3, read-out: MIC
  MIC: 0.124 µg/mL (≈ 0.39 µM)
ATCC49226, strain ATCC 49226, type strain, read-out: MIC
  MIC: 0.12 µg/mL (≈ 0.378 µM)
ATCC49226, strain MMX ATCC 49226, broth dilution by Micromyx, read-out: MIC
  MIC: 0.25 µg/mL (≈ 0.787 µM)
ATCC49226, strain MMX ATCC 49226, single data point, Micromyx, read-out: MIC
  MIC: 0.25 µg/mL (≈ 0.787 µM)
ATCC700719, strain ATCC 700719, SPT, read-out: MIC
  MIC: 0.25 µg/mL (≈ 0.787 µM)
ATCC700719, strain ATCC 700719, geomean of replicates, read-out: MIC GEOMEAN
  MIC: 0.248 µg/mL (≈ 0.781 µM)
ATCC700719, strain ATCC 700719, replicates 1-3, read-out: MIC
  MIC: 0.248 µg/mL (≈ 0.781 µM)
ATCC700825, strain ATCC 700825, STR, read-out: MIC
  MIC: 0.06 µg/mL (≈ 0.189 µM)
ATCC700825, strain ATCC 700825, geomean of replicates, read-out: MIC GEOMEAN
  MIC: 0.062 µg/mL (≈ 0.195 µM)
ATCC700825, strain ATCC 700825, replicates 1-3, read-out: MIC
  MIC: 0.062 µg/mL (≈ 0.195 µM)
BAA1846, strain BAA-1846, TET, read-out: MIC
  MIC: 0.06 µg/mL (≈ 0.189 µM)
BAA1846, strain BAA-1846, geomean of replicates, read-out: MIC GEOMEAN
  MIC: 0.062 µg/mL (≈ 0.195 µM)
BAA1846, strain BAA-1846, replicates 1-3, read-out: MIC
  MIC: 0.062 µg/mL (≈ 0.195 µM)
Strain H041, Fig. 1B, read-out: N. gonorrhoeae H041 MIC
  MIC: 0.12 µg/mL (≈ 0.378 µM)
Strain HO41, PEN, TET, CFM, CRO, LVX, read-out: MIC
  MIC: 0.25 µg/mL (≈ 0.787 µM)
Strain HO41, geomean of replicates, read-out: MIC GEOMEAN
  MIC: 0.248 µg/mL (≈ 0.781 µM)
Strain HO41, replicates 1-3, read-out: MIC
  MIC: 0.248 µg/mL (≈ 0.781 µM)
Strain MMX 6744, broth dilution by Micromyx, read-out: MIC
  MIC: 0.13 µg/mL (≈ 0.409 µM)
Strain MMX 6744, single data point, Micromyx, read-out: MIC
  MIC: 0.13 µg/mL (≈ 0.409 µM)
Strain MMX 6746, CIP, by Micromyx, read-out: MIC
  MIC: 0.13 µg/mL (≈ 0.409 µM)
Strain MMX 6746, single data point, Micromyx, read-out: MIC
  MIC: 0.13 µg/mL (≈ 0.409 µM)
Strain MMX 6752, TET, by Micromyx, read-out: MIC
  MIC: 0.25 µg/mL (≈ 0.787 µM)
Strain MMX 6752, single data point, Micromyx, read-out: MIC
  MIC: 0.25 µg/mL (≈ 0.787 µM)
Strain MMX 6753, by Micromyx, read-out: MIC
  MIC: 0.06 µg/mL (≈ 0.189 µM)
Strain MMX 6753, single data point, Micromyx, read-out: MIC
  MIC: 0.06 µg/mL (≈ 0.189 µM)
Strain MMX 6757, by Micromyx, read-out: MIC
  MIC: 0.06 µg/mL (≈ 0.189 µM)
Strain MMX 6757, single data point, Micromyx, read-out: MIC
  MIC: 0.06 µg/mL (≈ 0.189 µM)
Strain MMX 6758, by Micromyx, read-out: MIC
  MIC: 0.13 µg/mL (≈ 0.409 µM)
Strain MMX 6758, single data point, Micromyx, read-out: MIC
  MIC: 0.13 µg/mL (≈ 0.409 µM)
Strain MMX 6762, by Micromyx, read-out: MIC
  MIC: 0.13 µg/mL (≈ 0.409 µM)
Strain MMX 6762, single data point, Micromyx, read-out: MIC
  MIC: 0.13 µg/mL (≈ 0.409 µM)
Strain MMX 6767, by Micromyx, read-out: MIC
  MIC: 0.06 µg/mL (≈ 0.189 µM)
Strain MMX 6767, single data point, Micromyx, read-out: MIC
  MIC: 0.06 µg/mL (≈ 0.189 µM)
Strain MMX 6771, TET, by Micromyx, read-out: MIC
  MIC: 0.06 µg/mL (≈ 0.189 µM)
Strain MMX 6771, single data point, Micromyx, read-out: MIC
  MIC: 0.06 µg/mL (≈ 0.189 µM)
Strain MMX 6793, CIP, by Micromyx, read-out: MIC
  MIC: 0.06 µg/mL (≈ 0.189 µM)
Strain MMX 6793, single data point, Micromyx, read-out: MIC
  MIC: 0.06 µg/mL (≈ 0.189 µM)
Strain MMX 6797, CIP, TET, by Micromyx, read-out: MIC
  MIC: 0.06 µg/mL (≈ 0.189 µM)
Strain MMX 6797, single data point, Micromyx, read-out: MIC
  MIC: 0.06 µg/mL (≈ 0.189 µM)
Strain MMX 6803, CIP, by Micromyx, read-out: MIC
  MIC: 0.13 µg/mL (≈ 0.409 µM)
Strain MMX 6803, single data point, Micromyx, read-out: MIC
  MIC: 0.13 µg/mL (≈ 0.409 µM)
Strain MMX 6812, CIP, by Micromyx, read-out: MIC
  MIC: 0.13 µg/mL (≈ 0.409 µM)
